From ChEMBL document CHEMBL4665653, “VU6005806/AZN-00016130, an advanced M positive allosteric modulator (PAM) profiled as a potential preclinical development candidate” (Bioorg Med Chem Lett, 2019)
Converted amounts (≈) assume the structure as drawn.

Assays:
[1] = molecular target: Glutamate NMDA receptor (Rattus norvegicus) (UniProt P35439+Q00959+Q00960+Q00961+Q62645+Q8VHN2+Q9R1M7); test: Displacement of [3H]MDL 105,519 from glutamate NMDA receptor glycine binding site in Wistar rat cerebral cortical membranes assessed as residual binding level for radioligand at 10 uM incubated for 30 mins by radiometric scintillation analysis relative to control; format: tissue-based; conditions: Cerebral cortex
[2] = Oral bioavailability in rat at 3 mg/kg administered as suspension; format: ADME, organism-based; conditions: in vivo
[3] = molecular target: D(3) dopamine receptor (Homo sapiens) (UniProt P35462); test: Displacement of [3H]spiperone from full length human dopamine D3 receptor expressed in CHO cells assessed as residual binding level for radioligand at 10 uM incubated for 60 mins by radiometric scintillation analysis relative to control; format: cell-based
[4] = molecular target: Cannabinoid receptor 1 (Homo sapiens) (UniProt P21554); test: Displacement of [3H]-SR141716A from human recombinant full length Cannabinoid CB1 receptor expressed in Chem-1 cells assessed as residual binding level for radioligand at 10 uM incubated for 60 mins by radiometric scintillation analysis relative to control; format: cell-based
[5] = molecular target: T1, Muscarinic acetylcholine receptor M2 (Homo sapiens, UniProt P08172); test: Positive allosteric modulation of human M2 receptor/Gqi5 in presence of EC20 acetylcholine by calcium mobilization assay
T1 sequence (P08172 whole entry): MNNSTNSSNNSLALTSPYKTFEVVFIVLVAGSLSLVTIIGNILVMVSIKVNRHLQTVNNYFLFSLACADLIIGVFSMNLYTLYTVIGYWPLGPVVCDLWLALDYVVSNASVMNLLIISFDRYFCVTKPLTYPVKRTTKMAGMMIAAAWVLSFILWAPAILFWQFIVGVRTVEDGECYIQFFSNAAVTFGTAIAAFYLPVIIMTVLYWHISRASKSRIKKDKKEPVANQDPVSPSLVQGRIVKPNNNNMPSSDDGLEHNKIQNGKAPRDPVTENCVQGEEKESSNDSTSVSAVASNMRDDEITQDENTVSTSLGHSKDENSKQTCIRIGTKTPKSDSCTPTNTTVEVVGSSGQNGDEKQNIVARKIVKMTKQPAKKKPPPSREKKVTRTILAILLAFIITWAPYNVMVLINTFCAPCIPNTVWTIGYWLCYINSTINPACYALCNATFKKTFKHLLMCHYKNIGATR

Rattus norvegicus [6] = species: Rattus norvegicus; test: Displacement of [3H]GABA from GABA receptor in Wistar rat brain assessed as residual binding level for radioligand at 10 uM after 20 mins by radiometric scintillation analysis relative to control; format: tissue-based
[7] = molecular target: Muscarinic acetylcholine receptor M4 (Rattus norvegicus, UniProt P08485); test: Positive allosteric modulation of rat M4 receptor
Rattus norvegicus [8] = species: Rattus norvegicus; test: Displacement of [35S] dATPalphaS from P2Y receptor in Wistar rat brain at 10 uM incubated for 180 mins by radiometric scintillation analysis relative to control; format: tissue-based
[9] = molecular target: 5-hydroxytryptamine receptor 3A (Homo sapiens) (UniProt P46098); test: Displacement of [3H]GR-65630 from full length human recombinant 5HT3 receptor expressed in HEK293 cells assessed as residual binding level for radioligand at 10 uM measured after 60 mins by radiometric scintillation analysis relative to control; format: cell-based
[10] = Solubility of the compound pH 7.5; format: physicochemical; conditions: buffer
[11] = molecular target: Histamine H1 receptor (Homo sapiens) (UniProt P35367); test: Displacement of [3H]pyrilamine from full length recombinant human histamine H1 receptor expressed in CHO-K1 cells assessed as residual binding level for radioligand at 10 uM after 180 mins by scintillation counting analysis relative to control; format: cell-based
Cytochrome P450 2C9 = Cytochrome P450 2C9 (Homo sapiens, UniProt P11712); test: Inhibition of CYP2C9 (unknown origin); format: ADME
[12] = Brain to plasma permeability coefficient, Kp in Sprague-Dawley rat at 0.1 to 0.2 mg/kg, iv measured after 1.5 hrs; format: ADME, organism-based; conditions: dose 0.1-0.2 mg/kg
[13] = Volume of distribution at steady state in cynomolgus monkey; format: ADME, Macaca fascicularis; conditions: in vivo, read-out: Vdss
HIT-T15 = test: Displacement of [3H]glyburide from KATP receptor in HIT-T15 Syrian hamster pancreatic B cell membranes assessed as residual binding level for radioligand at 10 uM after 120 mins by radiometric scintillation analysis relative to control; format: tissue-based; conditions: Mesocricetus auratus
[14] = Unbound brain-to-plasma concentration ratio in Sprague-Dawley rat at 0.1 to 0.2 mg/kg, iv measured after 0.25 hrs; format: ADME, organism-based; conditions: dose 0.1-0.2 mg/kg, read-out: K(p,uu,brain)
[15] = molecular target: Muscarinic acetylcholine receptor M3 (Homo sapiens, UniProt P20309); test: Positive allosteric modulation of human M3 receptor
[16] = molecular target: Platelet-activating factor receptor (Homo sapiens) (UniProt P25105); test: Displacement of [3H]-PAF from human PAF receptor assessed as residual binding level for radioligand at 10 uM incubated for 180 mins by scintillation counting analysis relative to control
[17] = Half life in rat; format: ADME; conditions: in vivo
[18] = molecular target: Muscarinic acetylcholine receptor M5 (Rattus norvegicus, UniProt P08911); test: Positive allosteric modulation of rat M5 receptor
[19] = Plasma clearance in cynomolgus monkey; format: ADME, Macaca fascicularis; conditions: read-out: CL(app)
Cytochrome P450 3A4 = Cytochrome P450 3A4 (Homo sapiens, UniProt P08684); test: Inhibition of CYP3A4 (unknown origin); format: ADME
Rattus norvegicus [20] = species: Rattus norvegicus; test: Displacement of [3H]Muscimol from GABAA channel muscimol binding site in Wistar rat brain assessed as residual binding level for radioligand at 10 uM incubated for 10 mins by scintillation counting analysis relative to control; format: tissue-based
[21] = Half life in cynomolgus monkey; format: ADME, Macaca fascicularis; conditions: in vivo
[22] = molecular target: Sodium-dependent dopamine transporter (Homo sapiens) (UniProt Q01959); test: Displacement of [125I]RTI-55 from full length recombinant human dopamine transporter expressed in CHO-S cells assessed as residual binding level for radioligand at 10 uM after 180 mins by radiometric scintillation analysis relative to control; format: cell-based
hERG (KCNH2) = hERG (KCNH2) (Homo sapiens, UniProt Q12809); test: Displacement of [3H]-Astemizole from human recombinant full length ERG channel expressed in HEK293 cells assessed as residual binding level for radioligand at 10 uM incubated for 60 mins by scintillation counting analysis relative to control; format: cell-based; conditions: probe [3H]-Astemizole, read-out: INH
[23] = molecular target: Adenosine receptor A3 (Homo sapiens) (UniProt P0DMS8); test: Displacement of [125I]AB-MECA from recombinant full length human adenosine A3 receptor expressed in CHO-K1 cells assessed as residual binding level for radioligand at 10 uM after 60 mins by radiometric scintillation analysis relative to control; format: cell-based
[24] = molecular target: Alpha-2A adrenergic receptor (Homo sapiens) (UniProt P08913); test: Displacement of [3H][…] from recombinant full length human adrenergic alpha 2A receptor expressed in CHO-K1 cells assessed as residual binding level for radioligand at 10 uM incubated for 60 mins by radiometric scintillation analysis relative to control; format: cell-based
[25] = molecular target: Adenosine receptor A2a (Homo sapiens) (UniProt P29274); test: Displacement of [3H]CGS-21680 from full length recombinant human A2A receptor expressed in HEK293 cells assessed as residual binding level for radioligand at 10 uM measured after 90 mins radiometric scintillation analysis relative to control; format: cell-based
Adenosine receptor A2a (Homo sapiens), sequence (P29274 whole entry): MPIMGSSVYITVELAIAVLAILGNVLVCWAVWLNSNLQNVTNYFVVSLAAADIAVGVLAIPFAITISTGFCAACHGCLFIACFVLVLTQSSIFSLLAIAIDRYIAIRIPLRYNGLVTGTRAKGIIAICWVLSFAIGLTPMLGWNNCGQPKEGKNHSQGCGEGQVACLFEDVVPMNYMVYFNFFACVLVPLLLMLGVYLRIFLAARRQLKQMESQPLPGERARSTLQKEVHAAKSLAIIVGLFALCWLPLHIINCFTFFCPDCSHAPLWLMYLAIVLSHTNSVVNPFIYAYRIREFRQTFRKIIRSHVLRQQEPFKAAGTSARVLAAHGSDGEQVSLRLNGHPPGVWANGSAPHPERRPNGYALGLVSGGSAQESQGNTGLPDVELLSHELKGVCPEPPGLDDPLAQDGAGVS

Muscarinic acetylcholine receptor M5, sequence (P08911 whole entry): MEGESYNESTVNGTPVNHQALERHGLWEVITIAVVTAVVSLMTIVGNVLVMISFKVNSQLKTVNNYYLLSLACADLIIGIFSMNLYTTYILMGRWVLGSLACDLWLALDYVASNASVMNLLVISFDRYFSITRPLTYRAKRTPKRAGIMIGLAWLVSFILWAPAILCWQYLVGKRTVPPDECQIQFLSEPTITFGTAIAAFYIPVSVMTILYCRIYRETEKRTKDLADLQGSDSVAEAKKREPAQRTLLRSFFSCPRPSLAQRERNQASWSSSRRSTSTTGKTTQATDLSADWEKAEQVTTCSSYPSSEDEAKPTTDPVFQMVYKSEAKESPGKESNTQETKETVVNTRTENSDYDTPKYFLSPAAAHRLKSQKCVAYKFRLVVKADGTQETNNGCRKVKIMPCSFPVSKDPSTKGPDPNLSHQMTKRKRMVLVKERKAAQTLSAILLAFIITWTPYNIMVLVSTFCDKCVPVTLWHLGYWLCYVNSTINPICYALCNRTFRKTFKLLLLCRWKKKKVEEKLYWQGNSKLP
Alpha-2A adrenergic receptor (Homo sapiens), sequence (P08913 whole entry): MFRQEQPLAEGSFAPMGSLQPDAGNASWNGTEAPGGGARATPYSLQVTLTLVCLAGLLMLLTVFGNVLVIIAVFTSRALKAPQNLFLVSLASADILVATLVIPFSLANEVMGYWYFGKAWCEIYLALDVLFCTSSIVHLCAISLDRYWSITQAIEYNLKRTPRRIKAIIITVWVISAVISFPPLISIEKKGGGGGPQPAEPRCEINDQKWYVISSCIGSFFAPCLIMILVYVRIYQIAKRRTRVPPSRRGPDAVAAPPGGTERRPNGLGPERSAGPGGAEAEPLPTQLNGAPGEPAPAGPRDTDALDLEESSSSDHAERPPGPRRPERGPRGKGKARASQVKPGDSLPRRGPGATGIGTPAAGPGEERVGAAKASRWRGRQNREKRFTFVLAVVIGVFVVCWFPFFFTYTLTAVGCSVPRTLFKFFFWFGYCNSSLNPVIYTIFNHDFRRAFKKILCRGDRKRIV
Sodium-dependent dopamine transporter (Homo sapiens), sequence (Q01959 whole entry): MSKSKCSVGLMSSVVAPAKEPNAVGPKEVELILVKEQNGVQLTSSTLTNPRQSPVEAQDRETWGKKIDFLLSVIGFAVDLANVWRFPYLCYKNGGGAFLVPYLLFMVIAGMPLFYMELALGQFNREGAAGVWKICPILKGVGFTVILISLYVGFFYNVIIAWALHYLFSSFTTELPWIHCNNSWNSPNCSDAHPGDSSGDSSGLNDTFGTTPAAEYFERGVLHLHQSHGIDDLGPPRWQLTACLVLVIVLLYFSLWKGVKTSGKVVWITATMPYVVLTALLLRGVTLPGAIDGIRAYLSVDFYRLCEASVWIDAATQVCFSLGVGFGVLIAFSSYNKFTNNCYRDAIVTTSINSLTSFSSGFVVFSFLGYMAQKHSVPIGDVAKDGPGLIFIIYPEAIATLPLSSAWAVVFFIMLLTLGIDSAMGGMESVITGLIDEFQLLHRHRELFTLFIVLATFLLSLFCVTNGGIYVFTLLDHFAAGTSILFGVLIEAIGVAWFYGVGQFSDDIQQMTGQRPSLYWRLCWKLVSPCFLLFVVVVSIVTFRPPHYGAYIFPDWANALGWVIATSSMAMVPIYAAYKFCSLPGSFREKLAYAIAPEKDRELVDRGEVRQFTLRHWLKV
Cytochrome P450 3A4, sequence (P08684 whole entry): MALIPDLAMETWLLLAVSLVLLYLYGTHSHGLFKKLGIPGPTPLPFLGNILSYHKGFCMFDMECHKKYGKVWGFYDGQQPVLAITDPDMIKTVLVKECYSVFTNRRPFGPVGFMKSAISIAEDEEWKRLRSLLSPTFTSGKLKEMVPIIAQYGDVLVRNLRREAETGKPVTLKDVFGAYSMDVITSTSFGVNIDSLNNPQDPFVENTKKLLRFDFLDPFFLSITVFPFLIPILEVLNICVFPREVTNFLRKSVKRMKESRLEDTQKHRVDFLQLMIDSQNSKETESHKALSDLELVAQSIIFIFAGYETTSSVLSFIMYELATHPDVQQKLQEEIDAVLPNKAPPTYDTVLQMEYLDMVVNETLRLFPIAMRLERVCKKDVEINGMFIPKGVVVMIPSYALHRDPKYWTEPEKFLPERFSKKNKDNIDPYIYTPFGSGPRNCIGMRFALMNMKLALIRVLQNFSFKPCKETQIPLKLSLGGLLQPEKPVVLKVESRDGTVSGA
D(3) dopamine receptor (Homo sapiens), sequence (P35462 whole entry): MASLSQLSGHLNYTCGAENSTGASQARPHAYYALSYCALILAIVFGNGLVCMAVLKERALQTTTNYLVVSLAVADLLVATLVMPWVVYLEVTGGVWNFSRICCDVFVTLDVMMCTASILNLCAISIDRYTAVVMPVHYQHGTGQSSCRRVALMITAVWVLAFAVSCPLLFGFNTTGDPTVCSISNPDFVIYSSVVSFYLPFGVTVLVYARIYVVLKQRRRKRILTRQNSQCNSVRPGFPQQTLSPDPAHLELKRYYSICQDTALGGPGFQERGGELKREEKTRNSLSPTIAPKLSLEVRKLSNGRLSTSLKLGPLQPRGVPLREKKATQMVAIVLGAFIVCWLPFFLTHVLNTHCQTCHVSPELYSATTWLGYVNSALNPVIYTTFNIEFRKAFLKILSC
Muscarinic acetylcholine receptor M3, sequence (P20309 whole entry): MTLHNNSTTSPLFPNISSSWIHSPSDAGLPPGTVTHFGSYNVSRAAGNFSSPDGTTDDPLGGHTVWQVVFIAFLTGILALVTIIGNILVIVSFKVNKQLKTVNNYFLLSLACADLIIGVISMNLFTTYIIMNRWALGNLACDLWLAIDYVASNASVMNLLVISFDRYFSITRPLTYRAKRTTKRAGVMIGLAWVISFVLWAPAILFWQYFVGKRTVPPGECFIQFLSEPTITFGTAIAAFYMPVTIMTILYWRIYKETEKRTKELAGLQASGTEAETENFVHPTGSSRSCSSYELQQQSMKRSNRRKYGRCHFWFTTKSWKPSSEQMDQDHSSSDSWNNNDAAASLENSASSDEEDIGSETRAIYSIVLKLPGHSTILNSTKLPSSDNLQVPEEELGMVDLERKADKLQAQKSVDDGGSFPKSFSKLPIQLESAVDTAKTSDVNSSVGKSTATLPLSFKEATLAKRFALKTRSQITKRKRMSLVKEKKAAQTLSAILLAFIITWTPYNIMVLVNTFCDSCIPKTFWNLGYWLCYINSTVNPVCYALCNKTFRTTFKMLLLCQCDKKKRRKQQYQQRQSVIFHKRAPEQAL
Histamine H1 receptor (Homo sapiens), sequence (P35367 whole entry): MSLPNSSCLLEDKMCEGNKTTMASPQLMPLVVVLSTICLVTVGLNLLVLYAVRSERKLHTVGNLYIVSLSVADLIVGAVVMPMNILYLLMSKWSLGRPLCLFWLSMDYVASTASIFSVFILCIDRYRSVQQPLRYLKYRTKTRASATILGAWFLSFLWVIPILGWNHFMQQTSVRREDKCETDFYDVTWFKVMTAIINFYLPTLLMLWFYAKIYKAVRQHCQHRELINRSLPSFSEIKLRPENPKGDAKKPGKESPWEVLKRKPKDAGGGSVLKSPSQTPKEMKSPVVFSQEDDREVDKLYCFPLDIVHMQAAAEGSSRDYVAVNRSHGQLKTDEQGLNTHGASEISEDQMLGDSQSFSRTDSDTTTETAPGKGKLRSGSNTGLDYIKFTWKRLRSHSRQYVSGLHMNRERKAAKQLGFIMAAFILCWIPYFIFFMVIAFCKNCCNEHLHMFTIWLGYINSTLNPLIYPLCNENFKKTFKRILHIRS
Platelet-activating factor receptor (Homo sapiens), sequence (P25105 whole entry): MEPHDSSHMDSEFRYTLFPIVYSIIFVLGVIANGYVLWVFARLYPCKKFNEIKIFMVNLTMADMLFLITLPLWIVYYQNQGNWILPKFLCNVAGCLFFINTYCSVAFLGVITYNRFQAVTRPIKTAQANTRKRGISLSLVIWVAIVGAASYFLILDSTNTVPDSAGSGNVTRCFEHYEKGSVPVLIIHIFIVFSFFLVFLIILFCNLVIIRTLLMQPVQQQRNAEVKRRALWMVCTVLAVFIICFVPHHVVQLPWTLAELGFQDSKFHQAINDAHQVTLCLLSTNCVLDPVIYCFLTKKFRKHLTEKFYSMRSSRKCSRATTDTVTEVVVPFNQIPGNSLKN
Cytochrome P450 2C9, sequence (P11712 whole entry): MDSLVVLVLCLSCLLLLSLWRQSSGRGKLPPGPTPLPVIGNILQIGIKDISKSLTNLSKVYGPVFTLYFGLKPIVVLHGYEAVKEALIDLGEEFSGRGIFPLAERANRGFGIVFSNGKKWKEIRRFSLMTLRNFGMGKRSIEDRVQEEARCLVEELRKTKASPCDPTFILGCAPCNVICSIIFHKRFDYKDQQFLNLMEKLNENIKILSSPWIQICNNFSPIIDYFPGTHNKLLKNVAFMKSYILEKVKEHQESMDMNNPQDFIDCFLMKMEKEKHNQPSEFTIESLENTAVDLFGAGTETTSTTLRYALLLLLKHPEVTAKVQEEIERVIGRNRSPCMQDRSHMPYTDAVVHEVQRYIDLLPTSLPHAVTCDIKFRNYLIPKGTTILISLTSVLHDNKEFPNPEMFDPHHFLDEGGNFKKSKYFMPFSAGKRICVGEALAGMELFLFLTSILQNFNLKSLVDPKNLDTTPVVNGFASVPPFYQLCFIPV

Work on `COc1nnc2sc(C(=O)NC3CN(c4ncc(C(F)(F)F)cn4)C3)c(N)c2c1C` yielded an Activity [1] of over 50%, a bioavailability [2] of 57% and an Activity [3] of over 50%. The Activity [4] was over 50%, the EC50 [5] was over 30 µM and the Activity (Rattus norvegicus [6]) was over 50%. It also gave an EC50 [7] of 0.028 µM, an Activity (Rattus norvegicus [8]) of over 50% and an Activity [9] of over 50%. The solubility [10] was 2.9 µM (≈ 1.27 µg/mL), the Activity [11] was over 50% and the IC50 (Cytochrome P450 2C9) was over 30 µM. For the same molecule, the Kp at 1.5 h [12] was 0.16, the Vd [13] was 0.74 L/kg and the Activity (HIT-T15) was over 50%. It also gave a Kp uu at 0.25 h [14] of 0.73, an EC50 [15] of over 30 µM and an Activity [16] of over 50%. The half-life [17] was 2.8 h, the EC50 [18] was over 30 µM and the clearance [19] was 16 mL/min/kg. For the same molecule, the IC50 (Cytochrome P450 3A4) was over 30 µM, the Activity (Rattus norvegicus [20]) was over 50% and the half-life [21] was 1.3 h. The Activity [22] was over 50%, the activity at 1 h, 10 µM (hERG (KCNH2)) was under 25% and the Activity [23] was over 50%. For the same molecule, the Activity [24] was over 50% and the Activity [25] was over 50%.
